Assay [1] addresses T1, CB1 receptors (Mus musculus, UniProt P47746).
T1 construct: from tissue
Description: in vivo test (binding ex vivo) in mice after intravenous and/or oral administration. How it is done:
The compounds according to the invention were tested in vivo (binding ex vivo) in mice after intravenous and/or oral administration, according to the experimental conditions described by Rinaldi-Carmona et al. (J. Pharmacol. Exp., 1998, 284, 644-650). […] By the oral route, compounds 2, 3, 4, 11 and 12 have an ED50 of between 1 and 20 mg/kg for the CB1 receptors.

The target in assay [2] is CB1 cannabinoid receptors (Homo sapiens, UniProt P21554). The conditions noted are these: cited from earlier work.
Sequence of CB1 cannabinoid receptors (P21554 whole entry): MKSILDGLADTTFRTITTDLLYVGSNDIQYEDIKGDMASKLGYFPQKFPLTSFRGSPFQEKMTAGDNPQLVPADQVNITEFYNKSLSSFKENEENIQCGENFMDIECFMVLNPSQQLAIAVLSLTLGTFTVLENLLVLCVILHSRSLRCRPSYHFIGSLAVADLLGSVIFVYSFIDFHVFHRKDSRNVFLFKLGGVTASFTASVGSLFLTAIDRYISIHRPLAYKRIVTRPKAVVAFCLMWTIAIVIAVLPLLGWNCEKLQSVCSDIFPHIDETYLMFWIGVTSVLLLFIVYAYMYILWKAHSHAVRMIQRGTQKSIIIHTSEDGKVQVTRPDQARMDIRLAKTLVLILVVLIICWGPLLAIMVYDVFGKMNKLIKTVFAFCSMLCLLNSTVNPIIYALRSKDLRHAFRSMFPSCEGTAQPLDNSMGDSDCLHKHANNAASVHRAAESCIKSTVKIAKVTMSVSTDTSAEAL

T1 sequence (P47746 whole entry): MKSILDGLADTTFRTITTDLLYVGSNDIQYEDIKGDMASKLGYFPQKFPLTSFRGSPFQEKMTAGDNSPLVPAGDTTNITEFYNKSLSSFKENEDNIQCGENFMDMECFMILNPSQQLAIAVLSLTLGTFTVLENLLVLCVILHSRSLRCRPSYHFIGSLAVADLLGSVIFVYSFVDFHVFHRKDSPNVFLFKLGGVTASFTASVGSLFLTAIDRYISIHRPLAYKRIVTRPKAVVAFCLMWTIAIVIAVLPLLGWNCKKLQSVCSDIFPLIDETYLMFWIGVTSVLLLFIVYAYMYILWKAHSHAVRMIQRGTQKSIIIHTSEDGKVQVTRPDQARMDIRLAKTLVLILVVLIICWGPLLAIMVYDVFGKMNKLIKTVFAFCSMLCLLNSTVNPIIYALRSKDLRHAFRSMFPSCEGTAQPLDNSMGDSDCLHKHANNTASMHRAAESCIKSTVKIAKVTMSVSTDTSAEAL

`CC(C)(C)NC(=O)c1nn(-c2ccc(Cl)cc2Cl)c(-c2ccc(Br)cc2)c1C#N` [Compound 12, 5-(4-Bromophenyl)-4-cyano-1-(2,4-dichlorophenyl)-N-tert-butyl-1H-pyrazole-3-carboxamide]: the ED50 in assay [1] fell in the range of 1 to 20 mg/kg. Consider `COc1ccc(-c2c(C#N)c(C(=O)Nc3ccccc3)nn2-c2ccccc2Cl)cc1` [N-phenyl-1-(2-chlorophenyl)-4-cyano-5-(4-methoxyphenyl)-1H-pyrazole-3-carboxamide], for which, in assay [2], the “properties for the CB1 cannabinoid receptors” value was “inverse agonist properties”.

Values taken from patent US7521471B2, “4-cyanopyrazole-3-carboxamide derivatives, preparation and application thereof” (Sanofi-Aventis, priority 2003, dated 2009).
